Some test systems named below: ACHN renal; CCRF-CEM leukemia; COLO 205 colon; EKVX NSCLC; NCI-H23 lung; SK-OV-3 ovarian; TK-10 renal; UO-31 renal; HS 578T breast; T-47D breast.
Common to all, as to assay: DTP human tumour cell line panel, 48 h

“And” between values parts separate entries of the source, which are not always exact repeats. Equal values may be shown once.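 The compound was tested at five concentrations on cells cultured in 96-well plates, with a 48-hour exposure period. At the GI50, growth is halved. TGI: total growth inhibition.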

As usually defined, the GI50 is the concentration at which growth is held to half of that of the control. One may read the TGI as the concentration at which net growth stops. As for `COc1cc2c(c(OC)c1OC)-c1ccc(SC)c(=O)cc1[C@@H](NCc1cccc(C#N)c1)CC2`, the GI50 was 0.0134 µM with ACHN renal; below 0.0075 µM in the test on CCRF-CEM leukemia; below 0.0075 µM in the test on COLO 205 colon; below 0.0075 µM in the test on EKVX NSCLC; below 0.0075 µM in the test on SK-OV-3 ovarian; 16.2 µM in the test with TK-10 renal. In addition, the GI50 with UO-31 renal was below 0.0075 µM. In addition, the TGI with ACHN renal was above 75 µM; with CCRF-CEM leukemia, 6.16 µM; in the test on COLO 205 colon, 0.0593 µM and < 0.0075 µM; with EKVX NSCLC, above 75 µM; in the test on NCI-H23 lung it was below 0.0075 µM; with TK-10 renal, above 75 µM. In the test on UO-31 renal, this compound had a TGI above 75 µM.
As for `NCCCC1NC(=O)/C(=C(O)/C=C/C2CCC[C@@H]2CC2SCCS2)C1=O` (stereo not given in full), the TGI in the test on ACHN renal, in the test on CCRF-CEM leukemia, in the test on COLO 205 colon, in the test on EKVX NSCLC, in the test on NCI-H23 lung and in the test with SK-OV-3 ovarian was above 100 µM throughout. In addition, the concentration for total growth inhibition (TGI) in the test with TK-10 renal and in the test on UO-31 renal was above 100 µM in each case.
In the case of `Cc1ccccc1NC(=O)C1C(=O)N(c2ccccc2C)C(=O)/C1=N\N` (stereo not given), the TGI in the test on ACHN renal, in the test on CCRF-CEM leukemia, in the test on COLO 205 colon, in the test with EKVX NSCLC, with NCI-H23 lung and with SK-OV-3 ovarian was above 100 µM in each case. For the same compound, in the test with UO-31 renal, the TGI was above 100 µM.
In the case of `Cc1c(C(=O)/C=C/c2ccccc2Cl)[n+](=O)c2ccccc2n1[O-]`, the TGI was determined as 31.9 µM with ACHN renal; 28.8 µM in the test on COLO 205 colon; 31.1 µM in the test with EKVX NSCLC; 28.5 µM with NCI-H23 lung; 35.7 µM with SK-OV-3 ovarian; 33.2 µM in the test with UO-31 renal.
In the case of `CC1=CC2=C(C(N)=O)C(=O)OC2(C)C(c2ccccc2)C1` (stereo not given), the TGI with ACHN renal, in the test with EKVX NSCLC, with HS 578T breast, with SK-OV-3 ovarian, in the test with TK-10 renal and in the test with UO-31 renal was above 100 µM in each case.
Regarding `CCOC(=O)N1N=NC2C3OC(C[C@@]3(C#N)OC(C)=O)[C@H]21` (stereo not given in full), the TGI with ACHN renal, in the test on CCRF-CEM leukemia, with COLO 205 colon, with EKVX NSCLC, with NCI-H23 lung and in the test with SK-OV-3 ovarian was above 100 µM throughout. Moreover, the TGI with TK-10 renal and in the test with UO-31 renal was above 100 µM throughout.
Regarding `Nc1ccc2c(c1)CC1c3ccccc3C(C2)c2ccccc21`, the TGI in the test on ACHN renal, in the test on CCRF-CEM leukemia, in the test on COLO 205 colon, in the test with SK-OV-3 ovarian, in the test with TK-10 renal and with UO-31 renal was above 100 µM throughout.
`CC(=O)Nc1ccccc1-c1cnc2ccccc2n1`: the TGI in the test with ACHN renal, in the test with CCRF-CEM leukemia, with COLO 205 colon, with EKVX NSCLC, with NCI-H23 lung and in the test on SK-OV-3 ovarian was above 100 µM in each case. The compound further showed a TGI in the test on TK-10 renal above 100 µM.
With `CC(=O)C1C(=O)C(=O)N(c2ccccc2N2C(=O)C(=O)C(C(C)=O)C2=O)C1=O` (stereo not given), the TGI in the test on ACHN renal, in the test on CCRF-CEM leukemia, in the test with COLO 205 colon, in the test on EKVX NSCLC, in the test on NCI-H23 lung and with SK-OV-3 ovarian was above 100 µM in each case. The TGI with TK-10 renal and with UO-31 renal was above 100 µM throughout.
In the case of `COc1c(NC(=O)CC(C)=O)[c]([Hg][O]C(C)=O)c(OC)c(Cl)[c]1[Hg][O]C(C)=O`, the GI50 with ACHN renal is 13 µM; in the test on CCRF-CEM leukemia it was 4.8 µM; with EKVX NSCLC it was 22.3 µM; in the test on NCI-H23 lung, 11.8 µM; in the test on SK-OV-3 ovarian, 17.2 µM; in the test on TK-10 renal, 12.8 µM. For the same compound, the GI50 in the test with UO-31 renal was 16.2 µM. The TGI in the test with ACHN renal amounted to 25.6 µM; with CCRF-CEM leukemia, 28.5 µM; in the test with EKVX NSCLC, 41.4 µM; with NCI-H23 lung, 27.6 µM; in the test with SK-OV-3 ovarian, 31.1 µM; with TK-10 renal it was 25.3 µM. This compound also gave a TGI with UO-31 renal of 29.7 µM.
Consider `Cc1ccccc1-c1c(N)nc(N)nc1C(=O)Nc1nccs1`, for which the TGI in the test on ACHN renal, in the test with CCRF-CEM leukemia, with COLO 205 colon, in the test on EKVX NSCLC, in the test with NCI-H23 lung and with SK-OV-3 ovarian was above 100 µM in each case. The TGI in the test with TK-10 renal and with UO-31 renal was above 100 µM throughout.
Take `ICCC(c1ccccc1)(c1ccccc1)c1ccccc1`: the GI50 in the test on ACHN renal is 12 µM; in the test on CCRF-CEM leukemia it was 3.56 µM; in the test on COLO 205 colon it was 2.02 µM; with EKVX NSCLC, 6.96 µM; in the test on NCI-H23 lung it was 13.4 µM; in the test on SK-OV-3 ovarian, 14.7 µM. The GI50 in the test with T-47D breast is 14 µM; with TK-10 renal, 14 µM; with UO-31 renal it was 1.72 µM. Besides, the total growth inhibition concentration (TGI) worked out at 24.8 µM in the test on ACHN renal; 16.3 µM in the test on CCRF-CEM leukemia; 3.85 µM with COLO 205 colon; 23.2 µM in the test on EKVX NSCLC; 31 µM with NCI-H23 lung; 27.8 µM in the test with SK-OV-3 ovarian. Also, the TGI with T-47D breast turned out to be 34.1 µM; in the test with TK-10 renal, 30.7 µM; in the test with UO-31 renal it was 9.87 µM.
With `CCCCCCCCCC1C(C)c2c([nH]c3ccccc23)C2C(=O)N(c3ccccc3)C(=O)C21` (stereo not given), the TGI with ACHN renal was 22.8 µM; in the test with CCRF-CEM leukemia it was 8.05 µM; in the test on EKVX NSCLC it was above 100 µM; with NCI-H23 lung, 13.6 µM; in the test with SK-OV-3 ovarian, 33.5 µM; in the test with TK-10 renal it was 73.5 µM. Further, the concentration for total growth inhibition (TGI) in the test on UO-31 renal came out at 26.8 µM.
For the compound `Cc1ccc(NC(=O)CC/C(CC(=O)c2ccc(F)cc2)=N\NC(=O)C(=O)NN)cc1C`, the TGI in the test on ACHN renal, in the test with CCRF-CEM leukemia, in the test with COLO 205 colon, in the test with EKVX NSCLC, with NCI-H23 lung and in the test with SK-OV-3 ovarian was above 100 µM each time. Also, the TGI with TK-10 renal and in the test on UO-31 renal was above 100 µM in each case.

The values above are taken from PubChem BioAssay (NCI).
